Measurements as given in US12570683B2, “Polymorphic form of reduced beta-nicotinamide mononucleotide disodium salt, and preparation method therefor and use thereof” (EFFEPHARM (SHANGHAI) CO., LTD., priority 2022, dated 2026).

Experiments:
Type in all cases: physicochemical
[1] = Exposure in air at 2-8° C., relative humidity 70-80% (crystal form transformation by absorbing water); details: RH 70-80%
Excerpt: Moisture (KF) determination method: MC-2000 automatic micro-moisture tester from Min Measure Instrument and Equipment (Xiamen) Co., Ltd. and Karl Fischer reagent from Nanjing Chemical Reagent Co., Ltd.

[2] = Stability, placed openly in stability chamber at 25° C. and 65% RH; details: open
[3] = Stability, placed openly in stability chamber at 4° C. and 75% RH; details: open
[4] = 0 day, listed as amorphous solid, disodium salt
[5] = 1 day, listed as amorphous solid, disodium salt

SMILES: NC(=O)C1=CN([C@@H]2O[C@H](COP(=O)([O-])[O-])[C@@H](O)[C@H]2O)C=CC1.[Na+].[Na+] [crystal form B, reduced β-nicotinamide mononucleotide disodium salt]
- Moisture (KF) after exposure ([1]; after 30 days): 29%
- Resulting solid crystal form ([1]; after 30 days): crystal form A

SMILES: NC(=O)C1=CN([C@@H]2O[C@H](COP(=O)([O-])[O-])[C@@H](O)[C@H]2O)C=CC1.[Na+].[Na+] [crystal form C, reduced β-nicotinamide mononucleotide disodium salt]
- Moisture (KF) after exposure ([1]; after 24 hours): 24%
- Resulting solid crystal form ([1]; after 24 hours): crystal form A

SMILES: NC(=O)C1=CN([C@@H]2O[C@H](COP(=O)([O-])[O-])[C@@H](O)[C@H]2O)C=CC1.[Na+].[Na+] [Crystal form A, reduced β-nicotinamide mononucleotide disodium salt]
- NMNH disodium salt purity (HPLC, % area) ([2]; 0 day, disodium salt): 99.33 % area
- NMNH disodium salt purity (HPLC, % area) ([2]; 0 day, listed as crystal form A, disodium salt): 99.33 % area
- NMNH disodium salt purity (HPLC, % area) ([2]; 1 day, disodium salt): 99.27 % area
- NMNH disodium salt purity (HPLC, % area) ([2]; 5 day): 99.01 % area
- Appearance of solid ([2]; 5 days): still a crystal powder
- NMNH disodium salt purity (HPLC, % area) ([3]; 0 day, disodium salt): 99.33 % area
- NMNH disodium salt purity (HPLC, % area) ([3]; 5 day, disodium salt): 99.35 % area
- NMNH disodium salt purity (HPLC, % area) ([3]; 18 day, disodium salt): 99.33 % area
- NMNH disodium salt purity (HPLC, % area) ([3]; 18 day, listed as crystal form A, disodium salt): 99.33 % area
- Appearance of solid ([3]; 18 days, disodium salt): still a crystal powder

SMILES: NC(=O)C1=CN([C@@H]2O[C@H](COP(=O)([O-])[O-])[C@@H](O)[C@H]2O)C=CC1.[Na+].[Na+] [Amorphous Solids, reduced β-nicotinamide mononucleotide disodium salt]
- Appearance of solid ([2]; 0 day): (powders)
- NMNH disodium salt purity (HPLC, % area) ([2]; 0 day, disodium salt): 99.30 % area
- NMNH disodium salt purity (HPLC, % area) [2, 4]: 99.30 % area
- Appearance of solid ([2]; 1 day, disodium salt): (oil)
- NMNH disodium salt purity (HPLC, % area) ([2]; 1 day, disodium salt): 99.02 % area
- Appearance of solid [2, 5]: the powder absorbed water and turned into an oil
- NMNH disodium salt purity (HPLC, % area) [2, 5]: 99.02 % area
- NMNH disodium salt purity (HPLC, % area) ([3]; 0 day, disodium salt): 99.30 % area
- NMNH disodium salt purity (HPLC, % area) [3, 4]: 99.30 % area
- NMNH disodium salt purity (HPLC, % area) ([3]; 5 day, disodium salt): 99.26 % area
- NMNH disodium salt purity (HPLC, % area) ([3]; 5 day, listed as amorphous solid, disodium salt): 99.26 % area
- Appearance of solid ([3]; 5 days): the powder solid absorbed water and became viscous to form a mass
- NMNH disodium salt purity (HPLC, % area) ([3]; 18 day, disodium salt): 99.17 % area
- NMNH disodium salt purity (HPLC, % area) ([3]; 18 day, listed as amorphous solid, disodium salt): 99.17 % area
- Appearance of solid ([3]; 18 days, disodium salt): the color became darker
